Data published in BindingDB's records for doi:10.1016/S0960-894X(01)80562-X (1994).

Molecular target: Angiotensin-converting enzyme (Rattus norvegicus) (UniProt P47820)
Assay: In vitro inhibitory activity against angiotensin converting enzyme (ACE) in rat was determined

Chain of Angiotensin-converting enzyme (Rattus norvegicus) (P47820 whole entry, looked up): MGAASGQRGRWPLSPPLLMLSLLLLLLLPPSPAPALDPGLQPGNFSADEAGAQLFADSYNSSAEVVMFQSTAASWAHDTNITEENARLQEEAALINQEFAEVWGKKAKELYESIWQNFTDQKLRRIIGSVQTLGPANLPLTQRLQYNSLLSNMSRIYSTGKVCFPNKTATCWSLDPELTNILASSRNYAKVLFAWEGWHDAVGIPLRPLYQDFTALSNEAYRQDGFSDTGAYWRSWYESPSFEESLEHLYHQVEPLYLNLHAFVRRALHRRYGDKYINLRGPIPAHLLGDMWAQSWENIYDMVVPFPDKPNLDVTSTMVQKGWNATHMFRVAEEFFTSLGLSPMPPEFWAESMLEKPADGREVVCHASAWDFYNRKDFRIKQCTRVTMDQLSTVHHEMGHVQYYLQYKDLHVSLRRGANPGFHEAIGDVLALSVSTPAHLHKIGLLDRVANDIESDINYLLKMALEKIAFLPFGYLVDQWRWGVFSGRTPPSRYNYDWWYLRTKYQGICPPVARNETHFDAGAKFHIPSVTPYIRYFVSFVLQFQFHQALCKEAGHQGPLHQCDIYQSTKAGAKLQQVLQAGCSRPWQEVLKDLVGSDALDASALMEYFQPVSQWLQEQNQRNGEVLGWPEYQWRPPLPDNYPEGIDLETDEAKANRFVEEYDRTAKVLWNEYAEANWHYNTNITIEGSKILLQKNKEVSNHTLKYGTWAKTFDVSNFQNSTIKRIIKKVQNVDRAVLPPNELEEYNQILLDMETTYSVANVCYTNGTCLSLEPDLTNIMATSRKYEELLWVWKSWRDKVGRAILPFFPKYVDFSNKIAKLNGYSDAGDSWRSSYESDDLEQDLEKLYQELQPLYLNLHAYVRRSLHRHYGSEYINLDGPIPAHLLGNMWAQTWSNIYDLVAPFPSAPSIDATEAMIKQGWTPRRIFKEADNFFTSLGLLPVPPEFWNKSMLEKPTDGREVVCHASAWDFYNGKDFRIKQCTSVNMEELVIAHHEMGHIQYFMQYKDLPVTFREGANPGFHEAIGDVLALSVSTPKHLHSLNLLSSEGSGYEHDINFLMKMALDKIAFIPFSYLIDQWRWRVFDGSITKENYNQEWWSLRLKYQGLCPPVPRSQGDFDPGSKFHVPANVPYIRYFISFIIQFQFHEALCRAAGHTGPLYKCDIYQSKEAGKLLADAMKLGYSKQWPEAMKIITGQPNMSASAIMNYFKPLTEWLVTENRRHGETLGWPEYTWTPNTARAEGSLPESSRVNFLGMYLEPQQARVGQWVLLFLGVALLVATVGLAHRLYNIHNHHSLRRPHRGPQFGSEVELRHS

| SMILES | IC50 |
| --- | --- |
| CN1C(=O)CC[C@H](NC(=O)[C@@H](S)Cc2ccccc2)C(=O)N1CC(=O)O | 16 nM |
| CCCN1C(=O)CC[C@H](NC(=O)[C@@H](S)Cc2ccccc2)C(=O)N1CC(=O)O | 10 nM |
| CCCN1CCC[C@H](NC(=O)[C@@H](S)Cc2ccccc2)C(=O)N1CC(=O)O | 6 nM |
| O=C(O)CN1NCCC[C@H](NC(=O)[C@@H](S)Cc2ccccc2)C1=O | 60 nM |

Next, values leading:

| IC50 | SMILES |
| --- | --- |
| 16 nM | CN1CCC[C@H](NC(=O)[C@@H](S)Cc2ccccc2)C(=O)N1CC(=O)O |
| 8 nM | O=C(N[C@H]1CCCN2CCC[C@@H](C(=O)O)N2C1=O)[C@@H](S)Cc1ccccc1 |
| 12 nM | O=C(N[C@H]1CCCN2CC[C@@H](C(=O)O)N2C1=O)[C@@H](S)Cc1ccccc1 |
| 20 nM | O=C(N[C@H]1CCC(=O)N2CC[C@@H](C(=O)O)N2C1=O)[C@@H](S)Cc1ccccc1 |
| 7 nM | O=C(N[C@H]1CCC(=O)N2CCC[C@@H](C(=O)O)N2C1=O)[C@@H](S)Cc1ccccc1 |
